Converted amounts (≈) assume the structure as drawn. Like-named read-outs stand apart in the source and are kept apart here.
Test system: second and fourth instars larvae of the laboratory strain of cotton leafworm, S. littoralis
Assay: Insecticidal bioassay screening (castor leaf dip)
Type: in vivo
Details: for Toxicity index %: 72 hrs, Diflubenzuron's LC50/compound's LC50 x100; for LC90 (mg/L) at 95%: after 72 hrs of treatment; for LC50: Spodoptera littoralis, foliar
Experimental: Five concentrations (200, 100, 50, 25, 12.5 ppm) were designed for this synthetic compound and the reference Diflubenzuron compound as the dynamic ingredients based on ppm via diluting the commercial formulation.
In this experiment, castor leaves are immersed in each of the previously prepared concentrations of the components for 10 seconds and then left to dry for 60 minutes. Larvae of the second and fourth instars of each checked strain are prepared with treated leaves in gauze-covered glass containers for 72 hrs. An untreated control is made in which leaves are dipped in triton x-100 and distilled water only. Then the preserved leaves were removed & fresh, untreated leaves were provided for 72 hours. Three replicates (10 larvae each) were checked for each concentration. Daily inspection was carried out for all treatments and mortality percentages were recorded 3 days (72 hours) after treatment. The average mortality percentage was corrected employing Abbott's formula. The corrected mortality rate for each of the previously synthesized compounds is statistically calculated according to Finney (1970). Through this rate, the corresponding concentration test lines (LDP lines) are assessed.

[1] = 72 h, read-out: LC50 (mg/L) at 95%, 2nd instar larvae, after 72 hrs of treatment
[2] = 72 h, read-out: LC50 (mg/L) at 95%, 4th instar larvae, after 72 hrs of treatment
[3] = against Spodoptera littoralis under laboratory conditions, instar not stated

SMILES: O=C(NC(=S)Nc1ncn(-c2ccccc2)n1)c1ccccc1 [Compound 1, N-[(1-phenyl-1H-1,2,4-triazol-3-yl)carbamothioyl]benzamide]
- Toxicity index % (2nd instar larvae): 22.8%
- LC90 (mg/L) at 95% (2nd instar larvae): 1733.6 mg/L (≈ 5360 µM)
- LC90 (mg/L) at 95% (2nd instar larvae, listed as N-[(1-phenyl-4H-1,2,4-triazol-3-yl)carbamothioyl]benzamide): about 1733.6 mg/L
- Toxicity index % (4th instar larvae): 36.7%
- LC90 (mg/L) at 95% (4th instar larvae): 4090.2 mg/L (≈ 12600 µM)
- LC90 (mg/L) at 95% (4th instar larvae, listed as N-[(1-phenyl-4H-1,2,4-triazol-3-yl)carbamothioyl]benzamide): about 4090.2 mg/L
- LC50 [1]: ~198 mg/L (≈ 613 µM)
- LC50 [2]: ~392 mg/L (≈ 1210 µM)
- LC50 [3]: 198 mg/L (≈ 613 µM)

SMILES: O=C(NC(=O)c1c(F)cccc1F)Nc1ccc(Cl)cc1 [Diflubenzuron, reference compound]
- Toxicity index % (2nd instar larvae): 100%
- LC90 (mg/L) at 95% (2nd instar larvae): 520.0 mg/L (≈ 1670 µM)
- Toxicity index % (4th instar larvae): 100%
- LC90 (mg/L) at 95% (4th instar larvae): 1540.5 mg/L (≈ 4960 µM)
- LC50 [1]: 45.2 mg/L (≈ 145 µM)
- LC50 [2]: 144 mg/L (≈ 464 µM)
- LC50 [3]: 45.2 mg/L (≈ 145 µM)

From patent publication US12121026B1, “N-[(1-phenyl-4H-1,2,4-triazol-3-yl) carbamothioyl]benzamide as an eco-friendly insecticidal agent against spodoptera littoralis” (KING FAISAL UNIVERSITY, priority 2023, dated 2024)
